Source: patent US12441736B2, “KIF18A inhibitors” (AMGEN INC., priority 2018, dated 2025)

The compounds below were run against T1, Recombinant human KIF18A (1-467 His-tagged) protein (Homo sapiens, UniProt Q8NI77) (assay: KIF18A Enzyme Assay: microtubule-stimulated ATPase activity (ADP-Glo)). Details: 30 nM KIF18A, 30 μg/mL pig microtubules, 75 μM ATP, ADP-Glo luminescence.
T1 construct: Recombinant human KIF18A (1-467 His-tagged) protein; His; made in house
Assay type: biochemical
Method in brief: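 His-tagged human KIF18A (1-467, baculovirus), 30 nM, pre-incubated 15 min with compound in Tris pH 7.5 containing 30 μg/mL taxol-stabilised pig microtubules. ATP was then added at Km (75 μM) for 15 min at room temperature. ADP was measured by ADP-Glo luminescence, and IC50 was fitted by 4-parameter logistic over 22 points.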

T1 sequence (Q8NI77 1-467): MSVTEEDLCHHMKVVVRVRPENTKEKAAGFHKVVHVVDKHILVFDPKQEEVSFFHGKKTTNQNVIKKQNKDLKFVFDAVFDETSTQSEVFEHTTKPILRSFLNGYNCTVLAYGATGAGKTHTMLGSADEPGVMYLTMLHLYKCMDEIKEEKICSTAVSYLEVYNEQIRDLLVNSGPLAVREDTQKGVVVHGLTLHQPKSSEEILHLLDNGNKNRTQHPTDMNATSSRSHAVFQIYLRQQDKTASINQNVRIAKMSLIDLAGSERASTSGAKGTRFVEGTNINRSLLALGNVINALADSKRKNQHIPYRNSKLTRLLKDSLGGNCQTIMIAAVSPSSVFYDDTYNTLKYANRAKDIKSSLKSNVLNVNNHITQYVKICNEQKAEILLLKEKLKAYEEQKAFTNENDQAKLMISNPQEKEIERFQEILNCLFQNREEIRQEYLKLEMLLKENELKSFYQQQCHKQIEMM
T1 sequence (P02550 whole entry partner): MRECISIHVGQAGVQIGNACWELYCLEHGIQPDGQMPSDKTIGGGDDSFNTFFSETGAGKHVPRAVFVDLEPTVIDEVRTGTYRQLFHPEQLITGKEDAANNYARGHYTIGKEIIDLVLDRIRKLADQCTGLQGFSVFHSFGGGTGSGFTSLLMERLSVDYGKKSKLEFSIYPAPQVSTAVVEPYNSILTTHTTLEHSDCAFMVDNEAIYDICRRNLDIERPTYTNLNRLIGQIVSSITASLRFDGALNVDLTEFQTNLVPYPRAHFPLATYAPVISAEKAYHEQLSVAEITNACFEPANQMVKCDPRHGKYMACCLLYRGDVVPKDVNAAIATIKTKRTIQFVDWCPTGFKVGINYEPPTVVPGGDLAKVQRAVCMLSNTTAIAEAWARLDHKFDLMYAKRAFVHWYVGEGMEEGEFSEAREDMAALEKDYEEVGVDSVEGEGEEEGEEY
T1 sequence (P02554 whole entry partner): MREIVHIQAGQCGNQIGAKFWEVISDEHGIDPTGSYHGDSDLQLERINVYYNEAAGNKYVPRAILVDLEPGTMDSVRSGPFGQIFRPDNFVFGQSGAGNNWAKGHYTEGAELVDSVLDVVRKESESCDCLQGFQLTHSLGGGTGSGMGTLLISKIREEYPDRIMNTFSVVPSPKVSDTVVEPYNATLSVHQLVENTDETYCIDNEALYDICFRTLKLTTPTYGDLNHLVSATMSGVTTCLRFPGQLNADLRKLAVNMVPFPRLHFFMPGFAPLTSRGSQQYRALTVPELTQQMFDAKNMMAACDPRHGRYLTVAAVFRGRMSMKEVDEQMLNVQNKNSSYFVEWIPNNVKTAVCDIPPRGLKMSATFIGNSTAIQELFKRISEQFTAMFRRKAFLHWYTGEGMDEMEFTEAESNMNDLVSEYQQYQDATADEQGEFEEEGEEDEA

SMILES | IC50
CC(C)(CO)Nc1ccc(C(=O)Nc2cccc(N3CCN(C4CCC4)CC3)n2)c(N2CCC3(CC2)CC3)n1 [Example 191, 2-(6-azaspiro[2.5]octan-6-yl)-N-(6-(4-cyclobutyl-1-piperazinyl)-2-pyridinyl)-6-((1-hydroxy-2-methyl-2-propanyl)amino)-3-pyridinecarboxamide] | 1240 nM
CCN1CCN(c2cccc(NC(=O)c3ccc(NC(C)(C)CO)nc3N3CCC4(CC3)CC4)n2)CC1 [Example 192, 2-(6-azaspiro[2.5]octan-6-yl)-N-(6-(4-ethyl-1-piperazinyl)-2-pyridinyl)-6-((1-hydroxy-2-methyl-2-propanyl)amino)-3-pyridinecarboxamide] | 1090 nM
COC(=O)C(F)(C(=O)OC)c1ccc(C(=O)Nc2cccc(S(=O)(=O)NC(C)(C)C)n2)c(N2CCC3(CC2)CC3)n1 [Example 193, dimethyl (6-(6-azaspiro[2.5]octan-6-yl)-5-((6-((2-methyl-2-propanyl)sulfamoyl)-2-pyridinyl)carbamoyl)-2-pyridinyl)(fluoro)propanedioate] | 239 nM
CC(C)(C)NS(=O)(=O)c1cccc(NC(=O)c2ccc(C(F)(CO)CO)nc2N2CCC3(CC2)CC3)n1 [Example 194, 2-(6-azaspiro[2.5]octan-6-yl)-6-(2-fluoro-1,3-dihydroxy-2-propanyl)-N-(6-((2-methyl-2-propanyl)sulfamoyl)-2-pyridinyl)-3-pyridinecarboxamide] | 283 nM
CC(C)(C)NS(=O)(=O)c1cccc(NC(=O)c2ccc(C(F)CO)nc2N2CCC3(CC2)CC3)n1 (stereo not shown) [Example 195, N-(6-(N-(tert-butyl)sulfamoyl)pyridin-2-yl)-6-(1-fluoro-2-hydroxyethyl)-2-(6-azaspiro[2.5]octan-6-yl)nicotinamide] | 196 nM
C[C@@H]1CN(c2cccc(NC(=O)c3ccc(C(F)(CO)CO)nc3N3CCC4(CC3)CC4)n2)CCO1 [Example 196, 2-(6-azaspiro[2.5]octan-6-yl)-6-(2-fluoro-1,3-dihydroxy-2-propanyl)-N-(6-((2R)-2-methyl-4-morpholinyl)-2-pyridinyl)-3-pyridinecarboxamide] | 158 nM
C[C@@H]1CN(c2cccc(NC(=O)c3ccc(C(F)CO)nc3N3CCC4(CC3)CC4)n2)CCO1 (stereo partly drawn) [Example 197, 6-(1-Fluoro-2-hydroxyethyl)-N-(6-((R)-2-methylmorpholino)pyridin-2-yl)-2-(6-azaspiro[2.5]octan-6-yl)nicotinamide] | 180 nM
COC(=O)C(F)(C(=O)OC)c1ccc(C(=O)Nc2cccc(N3CCO[C@H](C)C3)n2)c(N2CCC3(CC2)CC3)n1 [Example 198, dimethyl (6-(6-azaspiro[2.5]octan-6-yl)-5-((6-((2R)-2-methyl-4-morpholinyl)-2-pyridinyl)carbamoyl)-2-pyridinyl)(fluoro)propanedioate] | 156 nM
COCC(C)(C)Nc1ccc(C(=O)Nc2cccc(N3CCO[C@H](C)C3)n2)c(N2CCC3(CC2)CC3)n1 [Example 200, 2-(6-azaspiro[2.5]octan-6-yl)-6-((1-methoxy-2-methyl-2-propanyl)amino)-N-(6-((2R)-2-methyl-4-morpholinyl)-2-pyridinyl)-3-pyridinecarboxamide] | 636 nM
CC(C)C1CN(c2cccc(NC(=O)c3ccc(NC(C)(C)CO)nc3N3CCC4(CC3)CC4)n2)CCO1 (stereo not shown) [Example 203, 6-((1-hydroxy-2-methylpropan-2-yl)amino)-N-(6-(2-isopropylmorpholino)pyridin-2-yl)-2-(6-azaspiro[2.5]octan-6-yl)nicotinamide] | 242 nM
CCC1CN(c2cccc(NC(=O)c3ccc(NC(C)(C)CO)nc3N3CCC4(CC3)CC4)n2)CCO1 (stereo not shown) [Example 204, N-(6-(2-ethylmorpholino)pyridin-2-yl)-6-((1-hydroxy-2-methylpropan-2-yl)amino)-2-(6-azaspiro[2.5]octan-6-yl)nicotinamide] | 160 nM
C[C@@H]1CN(c2cccc(NC(=O)c3ccc(OCCC(C)(C)N)nc3N3CCC4(CC3)CC4)n2)CCO1 [Example 209, 6-(3-amino-3-methylbutoxy)-2-(6-azaspiro[2.5]octan-6-yl)-N-(6-((2R)-2-methyl-4-morpholinyl)-2-pyridinyl)-3-pyridinecarboxamide] | 411 nM

The next lines start with the values.

IC50 | SMILES
123 nM | CC(C)(CO)Nc1ccc(C(=O)Nc2cccc(N3CCOC(C(F)(F)F)C3)n2)c(N2CCC3(CC2)CC3)n1 (stereo not shown) [Example 205, 6-((1-hydroxy-2-methylpropan-2-yl)amino)-2-(6-azaspiro[2.5]octan-6-yl)-N-(6-(2-(trifluoromethyl)morpholino)pyridin-2-yl)nicotinamide]
692 nM | Cc1cc(NC(=O)c2ccc(OCC(N)(CO)C(F)(F)F)nc2N2CCC3(CC2)CC3)nc(N2CCOCC2)c1 (stereo not shown) [Example 208, 6-(2-amino-3,3,3-trifluoro-2-(hydroxymethyl)propoxy)-N-(4-methyl-6-morpholinopyridin-2-yl)-2-(6-azaspiro[2.5]octan-6-yl)nicotinamide]
239 nM | CC(C)(CCO)Nc1ccc(C(=O)Nc2cccc(N3CCO[C@H](CO)C3)n2)c(N2CCC3(CC2)CC3)n1 [Example 210, 2-(6-azaspiro[2.5]octan-6-yl)-6-((4-hydroxy-2-methyl-2-butanyl)amino)-N-(6-((2S)-2-(hydroxymethyl)-4-morpholinyl)-2-pyridinyl)-3-pyridinecarboxamide]
142 nM | Cc1cc(NC(=O)c2ccc(NC(C)(C)CCO)nc2N2CCC3(CC2)CC3)nc(N2CCOCC2)c1 [Example 211, 2-(6-azaspiro[2.5]octan-6-yl)-6-((4-hydroxy-2-methyl-2-butanyl)amino)-N-(4-methyl-6-(4-morpholinyl)-2-pyridinyl)-3-pyridinecarboxamide]
540 nM | Cc1cc(NC(=O)c2ccc(N3CC(O)CC3(C)C)nc2N2CCC3(CC2)CC3)nc(N2CCOCC2)c1 (stereo not drawn) [Example 212, 6-(4-hydroxy-2,2-dimethylpyrrolidin-l-yl)-N-(4-methyl-6-morpholinopyridin-2-yl)-2-(6-azaspiro[2.5]octan-6-yl)nicotinamide]
523 nM | C[C@@H]1CN(c2cccc(NC(=O)c3ccc(N4CC(O)CC4(C)C)nc3N3CCC4(CC3)CC4)n2)CCO1 (stereo partly drawn) [Example 213, 6-(4-hydroxy-2,2-dimethylpyrrolidin-1-yl)-N-(6-((R)-2-methylmorpholino)pyridin-2-yl)-2-(6-azaspiro[2.5]octan-6-yl)nicotinamide]
170 nM | C[C@@H]1CN(c2cccc(NC(=O)c3ccc(NC(C)(C)CCO)nc3N3CCC4(CC3)CC4)n2)CCO1 [Example 214, 2-(6-azaspiro[2.5]octan-6-yl)-6-((4-hydroxy-2-methyl-2-butanyl)amino)-N-(6-((2R)-2-methyl-4-morpholinyl)-2-pyridinyl)-3-pyridinecarboxamide]
330 nM | CC(C)(CO)Nc1ccc(C(=O)Nc2cccc(N3CCC(O)CC3)n2)c(N2CCC3(CC2)CC3)n1 [Example 215, 2-(6-azaspiro[2.5]octan-6-yl)-6-((1-hydroxy-2-methyl-2-propanyl)amino)-N-(6-(4-hydroxy-1-piperidinyl)-2-pyridinyl)-3-pyridinecarboxamide]
80.4 nM | CC(C)(CO)Nc1ccc(C(=O)Nc2cccc(N3CCC[C@@H](O)C3)n2)c(N2CCC3(CC2)CC3)n1 [Example 216, 2-(6-azaspiro[2.5]octan-6-yl)-6-((1-hydroxy-2-methyl-2-propanyl)amino)-N-(6-((3R)-3-hydroxy-1-piperidinyl)-2-pyridinyl)-3-pyridinecarboxamide]
222 nM | COCC(C)(CO)Nc1ccc(C(=O)Nc2cccc(N3CCO[C@H](C)C3)n2)c(N2CCC3(CC2)CC3)n1 (stereo partly drawn) [Example 217, 6-((1-hydroxy-3-methoxy-2-methylpropan-2-yl)amino)-N-(6-((R)-2-methylmorpholino)pyridin-2-yl)-2-(6-azaspiro[2.5]octan-6-yl)nicotinamide]
150 nM | C[C@@H]1CN(c2cccc(NC(=O)c3ccc(NS(C)(=O)=O)nc3N3CCC4(CC3)CC4)n2)CCO1 [Example 218, 2-(6-azaspiro[2.5]octan-6-yl)-N-(6-((2R)-2-methyl-4-morpholinyl)-2-pyridinyl)-6-((methylsulfonyl)amino)-3-pyridinecarboxamide]
217 nM | CC(C)(CO)Nc1ccc(C(=O)Nc2cccc(N3CC(O)CC3(C)C)n2)c(N2CCC3(CC2)CC3)n1 (stereo not shown) [Example 219, N-(6-(4-hydroxy-2,2-dimethylpyrrolidin-1-yl)pyridin-2-yl)-6-((1-hydroxy-2-methylpropan-2-yl)amino)-2-(6-azaspiro[2.5]octan-6-yl)nicotinamide]
357 nM | CC(C)(CO)Nc1ccc(C(=O)Nc2cccc(N3CCC(O)C3(C)C)n2)c(N2CCC3(CC2)CC3)n1 (stereo not shown) [Example 221, N-(6-(3-hydroxy-2,2-dimethylpyrrolidin-1-yl)pyridin-2-yl)-6-((1-hydroxy-2-methylpropan-2-yl)amino)-2-(6-azaspiro[2.5]octan-6-yl)nicotinamide]
88 nM | C[C@@H]1CN(c2cccc(NC(=O)c3ccc(NC(CO)(CO)CO)nc3N3CCC4(CC3)CC4)n2)CCO1 [Example 222, 2-(6-azaspiro[2.5]octan-6-yl)-6-((1,3-dihydroxy-2-(hydroxymethyl)-2-propanyl)amino)-N-(6-((2R)-2-methyl-4-morpholinyl)-2-pyridinyl)-3-pyridinecarboxamide]
79.4 nM | CNS(=O)(=O)c1ccc(C(=O)Nc2cccc(N3CCO[C@H](C)C3)n2)c(N2CCC3(CC2)CC3)n1 [Example 223, (R)-N-(6-(2-methylmorpholino)pyridin-2-yl)-6-(N-methylsulfamoyl)-2-(6-azaspiro[2.5]octan-6-yl)nicotinamide]
68.8 nM | C[C@@H]1CN(c2cccc(NC(=O)c3ccc(S(N)(=O)=O)nc3N3CCC4(CC3)CC4)n2)CCO1 [Example 224, 2-(6-azaspiro[2.5]octan-6-yl)-N-(6-((2R)-2-methyl-4-morpholinyl)-2-pyridinyl)-6-sulfamoyl-3-pyridinecarboxamide]
